Reference: PubChem BioAssay AID2060883 (Molecular Pharmacology Branch, DTP, NCI, 2025)
One block for each compound: values may come before it.

Test system: 843782-103-R-J1-PDC complex spheroid viability
Experiment: Anticancer human tumor 843782-103-R-J1-PDC patient-derived lung adenocarcinoma cell line growth inhibition [RAS]
Settings: for IC50: curve of first compound; for viability, T/C: stronger effect = lower value
Procedure, shortened: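 Tumour cells grown as complex spheroids with HUVEC endothelial cells and mesenchymal stem cells, treated with RAS pathway inhibitor combinations. Each agent spans half-log steps from near clinical Cmax, or 10 microM where Cmax is unknown.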
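Also: viability read after seven days of compound exposure.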

- IC50 (second compound 0.000949 µM): > 1000 nM
- IC50 (second compound 0.003 µM): > 1000 nM
- IC50 (second compound 0.00949 µM): > 1000 nM
- IC50 (second compound 0.03 µM): > 1000 nM
- IC50 (second compound 0.0949 µM): > 1000 nM
- IC50 (second compound 0.3 µM): > 1000 nM
SMILES: C=CC(=O)N1CCN(c2nc(OCC3CCCN3C)nc3c(F)c(-c4nc(N)cc(C)c4C(F)(F)F)c(Cl)cc23)C(C)C1 (centres undefined) + CCn1c(-c2cccnc2C(C)OC)c2c3cc(ccc31)N1CCOC(CC(NC(=O)C(C(C)C)N(C)C(=O)C3(F)CCN(C(=O)C#CC(C)(C)N(C)C)CC3)C(=O)N3CCCC(N3)C(=O)OCC(C)(C)C2)C1
- viability, T/C (second compound 0.000949 µM, first compound 0.00316 µM): 80.5%
- viability, T/C (second compound 0.000949 µM, first compound 0.01 µM): 67.2%
- viability, T/C (second compound 0.000949 µM, first compound 0.0316 µM): 75.9%
- viability, T/C (second compound 0.000949 µM, first compound 0.1 µM): 77.9%
- viability, T/C (second compound 0.000949 µM, first compound 0.316 µM): 72.8%
- viability, T/C (second compound 0.000949 µM, first compound 1 µM): 78.5%
- viability, T/C (second compound 0.003 µM, first compound 0.00316 µM): 71.4%
- viability, T/C (second compound 0.003 µM, first compound 0.01 µM): 69.3%
- viability, T/C (second compound 0.003 µM, first compound 0.0316 µM): 77.7%
- viability, T/C (second compound 0.003 µM, first compound 0.1 µM): 81.6%
- viability, T/C (second compound 0.003 µM, first compound 0.316 µM): 78.3%
- viability, T/C (second compound 0.003 µM, first compound 1 µM): 74.4%
- viability, T/C (second compound 0.00949 µM, first compound 0.00316 µM): 63.6%
- viability, T/C (second compound 0.00949 µM, first compound 0.01 µM): 62.4%
- viability, T/C (second compound 0.00949 µM, first compound 0.0316 µM): 77.5%
- viability, T/C (second compound 0.00949 µM, first compound 0.1 µM): 80.1%
- viability, T/C (second compound 0.00949 µM, first compound 0.316 µM): 88.1%
- viability, T/C (second compound 0.00949 µM, first compound 1 µM): 74.4%
- viability, T/C (second compound 0.03 µM, first compound 0.00316 µM): 82.4%
- viability, T/C (second compound 0.03 µM, first compound 0.01 µM): 71.6%
- viability, T/C (second compound 0.03 µM, first compound 0.0316 µM): 71.5%
- viability, T/C (second compound 0.03 µM, first compound 0.1 µM): 75.4%
- viability, T/C (second compound 0.03 µM, first compound 0.316 µM): 82.5%
- viability, T/C (second compound 0.03 µM, first compound 1 µM): 69.4%
- viability, T/C (second compound 0.0949 µM, first compound 0.00316 µM): 81.6%
- viability, T/C (second compound 0.0949 µM, first compound 0.01 µM): 75.9%
- viability, T/C (second compound 0.0949 µM, first compound 0.0316 µM): 77.6%
- viability, T/C (second compound 0.0949 µM, first compound 0.1 µM): 79.7%
- viability, T/C (second compound 0.0949 µM, first compound 0.316 µM): 77.7%
- viability, T/C (second compound 0.0949 µM, first compound 1 µM): 77%
- viability, T/C (second compound 0.3 µM, first compound 0.00316 µM): 65.4%
- viability, T/C (second compound 0.3 µM, first compound 0.01 µM): 69.2%
- viability, T/C (second compound 0.3 µM, first compound 0.0316 µM): 61.2%
- viability, T/C (second compound 0.3 µM, first compound 0.1 µM): 70.7%
- viability, T/C (second compound 0.3 µM, first compound 0.316 µM): 68%
- viability, T/C (second compound 0.3 µM, first compound 1 µM): 69.6%

- IC50 (second compound 0.000949 µM): 2.53 nM
- IC50 (second compound 0.003 µM): 2.29 nM
- IC50 (second compound 0.00949 µM): 3.46 nM
- IC50 (second compound 0.03 µM): 3.86 nM
- IC50 (second compound 0.0949 µM): 2.63 nM
- IC50 (second compound 0.3 µM): 1.67 nM
SMILES: CC1(C)CCC(Nc2ncc(C(F)(F)F)c(-c3c[nH]c4c(P(C)(C)=O)c(C#N)ccc34)n2)CN1 (centres undefined) + CCn1c(-c2cccnc2C(C)OC)c2c3cc(ccc31)N1CCOC(CC(NC(=O)C(C(C)C)N(C)C(=O)C3(F)CCN(C(=O)C#CC(C)(C)N(C)C)CC3)C(=O)N3CCCC(N3)C(=O)OCC(C)(C)C2)C1
- viability, T/C (second compound 0.000949 µM, first compound 0.000949 µM): 78.2%
- viability, T/C (second compound 0.000949 µM, first compound 0.003 µM): 45.2%
- viability, T/C (second compound 0.000949 µM, first compound 0.00949 µM): 29.4%
- viability, T/C (second compound 0.000949 µM, first compound 0.03 µM): 26.6%
- viability, T/C (second compound 0.000949 µM, first compound 0.0949 µM): 22.9%
- viability, T/C (second compound 0.000949 µM, first compound 0.3 µM): 21.8%
- viability, T/C (second compound 0.003 µM, first compound 0.000949 µM): 59.9%
- viability, T/C (second compound 0.003 µM, first compound 0.003 µM): 46.3%
- viability, T/C (second compound 0.003 µM, first compound 0.00949 µM): 32.3%
- viability, T/C (second compound 0.003 µM, first compound 0.03 µM): 21%
- viability, T/C (second compound 0.003 µM, first compound 0.0949 µM): 17.9%
- viability, T/C (second compound 0.003 µM, first compound 0.3 µM): 19.4%
- viability, T/C (second compound 0.00949 µM, first compound 0.000949 µM): 59.6%
- viability, T/C (second compound 0.00949 µM, first compound 0.003 µM): 51.8%
- viability, T/C (second compound 0.00949 µM, first compound 0.00949 µM): 34%
- viability, T/C (second compound 0.00949 µM, first compound 0.03 µM): 20.2%
- viability, T/C (second compound 0.00949 µM, first compound 0.0949 µM): 19.5%
- viability, T/C (second compound 0.00949 µM, first compound 0.3 µM): 19%
- viability, T/C (second compound 0.03 µM, first compound 0.000949 µM): 62.9%
- viability, T/C (second compound 0.03 µM, first compound 0.003 µM): 55.1%
- viability, T/C (second compound 0.03 µM, first compound 0.00949 µM): 33%
- viability, T/C (second compound 0.03 µM, first compound 0.03 µM): 22.6%
- viability, T/C (second compound 0.03 µM, first compound 0.0949 µM): 18.8%
- viability, T/C (second compound 0.03 µM, first compound 0.3 µM): 18%
- viability, T/C (second compound 0.0949 µM, first compound 0.000949 µM): 69.3%
- viability, T/C (second compound 0.0949 µM, first compound 0.003 µM): 46.8%
- viability, T/C (second compound 0.0949 µM, first compound 0.00949 µM): 31.5%
- viability, T/C (second compound 0.0949 µM, first compound 0.03 µM): 18.5%
- viability, T/C (second compound 0.0949 µM, first compound 0.0949 µM): 17.3%
- viability, T/C (second compound 0.0949 µM, first compound 0.3 µM): 17.6%
- viability, T/C (second compound 0.3 µM, first compound 0.000949 µM): 57.7%
- viability, T/C (second compound 0.3 µM, first compound 0.003 µM): 41.8%
- viability, T/C (second compound 0.3 µM, first compound 0.00949 µM): 24.4%
- viability, T/C (second compound 0.3 µM, first compound 0.03 µM): 15.5%
- viability, T/C (second compound 0.3 µM, first compound 0.0949 µM): 13.6%
- viability, T/C (second compound 0.3 µM, first compound 0.3 µM): 14.4%
